Laboratory results: US8119563B2, “N-substituted azacycles” (FMC Corporation, priority 2003, dated 2012)

Tested on: tobacco budworm (Heliothis virescens [Fabricius])
Assay: surface-treated diet test, insecticidal activity against tobacco budworm
Assay type: in vivo
Set-up: mortality: concentration or dose not given beside the values
Conditions: 0.25 millimoles of candidate insecticide on the surface of the diet, second instar larvae, five-day exposure; for Percent Mortality / mortality: compared to total number of insects infested; for Percent Growth Inhibition / pest or weed control at 0.25 mmol/well: inhibition of insect weight relative to untreated controls; for mortality / pest or weed control at 0.25 mmol/well: Heliothis virescens, 120 h; for mortality: read-out: Percent Mortality; for pest or weed control at 0.25 mmol/well: read-out: Percent Growth Inhibition
Protocol: Candidate insecticides were evaluated for activity against the tobacco budworm (Heliothis virescens [Fabricius]) in a surface-treated diet test.
In this test one mL of molten (65-70° C.) wheat germ-based artificial diet was pipetted into each well of a four by six (24 well) multi-well plate (ID# 430345-15.5 mm dia.×17.6 mm deep; Corning Costar Corp., One Alewife Center, Cambridge, Mass. 02140). The diet was allowed to cool to ambient temperature before treatment with candidate insecticide.
For a determination of insecticidal activity, solutions of the candidate insecticides were prepared for testing using a Packard 204DT Multiprobe® Robotic System (Packard Instrument Company, 800 Research Parkway, Meriden, Conn. 06450), in which the robot first diluted a standard 50 millimolar DMSO solution of candidate insecticide with a 1:1 water/acetone solution (V/V) in a ratio of 1:7 stock solution to water/acetone. The robot subsequently pipetted 40 microliters of the so-prepared solution onto the surface of the diet in each of three wells in the 24 multi-well plate. The process was repeated with solutions of seven other candidate insecticides. Once treated, the contents of the multi-well plate were allowed to dry, leaving 0.25 millimoles of candidate insecticide on the surface of the diet, or a concentration of 0.25 millimolar. Appropriate untreated controls containing only DMSO on the diet surface were also included in this test.
For evaluations of the insecticidal activity of a candidate insecticide at varying rates of application, the test was established as described above using sub-multiples of the standard 50 millimolar DMSO solution of candidate insecticide. For example, the standard 50 millimolar solution was diluted by the robot with DMSO to give 5, 0.5, 0.05, 0.005, 0.0005 millimolar, or more dilute solutions of the candidate insecticide. In these evaluations there were six replicates of each rate of application placed on the surface of the diet in the 24 multi-well plate, for a total of four rates of application of candidate insecticide in each plate.
In each well of the test plate was placed one second instar tobacco budworm larvea, each weighing approximately five milligrams. After the larvae were placed in each well, the plate was sealed with clear polyfilm adhesive tape. The tape over each well was perforated to ensure an adequate air supply. The plates were then held in a growth chamber at 25° C. and 60% relative humidity for five days (light 14 hours/day).
After the five-day exposure period insecticidal activity for each rate of application of candidate insecticide was assessed as percent inhibition of insect weight relative to the weight of insects from untreated controls, and percent mortality when compared to the total number of insects infested.
The test compounds of formula I are identified by numbers that correspond to those in Table 1.

SMILES	Percent Mortality	Percent Growth Inhibition	mortality	pest or weed control at 0.25 mmol/well
OC1(C(c2ccc(OC(F)(F)F)cc2)c2ccc(OC(F)(F)F)cc2)CCN(Cc2ccc(Oc3ncccc3C(F)(F)F)cc2)CC1 [Compound 30]	100%	100%	–	–
CCCOc1ccc(CN2CCC(O)(C(O)(c3ccc(OC(F)(F)F)cc3)c3ccc(OC(F)(F)F)cc3)CC2)cc1 [Compound 91]	100%	100%	–	–
CCCOc1ccc(CN2CCC(O)(C(O)(c3ccc(C(F)(F)F)cc3)c3ccc(C(F)(F)F)cc3)CC2)cc1 [Compound 92]	100%	100%	–	–
Cn1nnc(-c2ccc(CN3CCC(O)(C(O)(c4ccc(OC(F)(F)F)cc4)c4ccc(OC(F)(F)F)cc4)CC3)cc2)n1 [Compound 93, 4-{bis[4-(trifluoromethoxy)phenyl]hydroxymethyl}-1-{[4-(2-methyl(1,2,3,4-tetrazol-5-yl))phenyl]methyl}piperidin-4-ol]	–	–	100%	100%
[O-][N+]1(Cc2ccc(Oc3ccccn3)cc2)CCC(O)(C(c2ccc(C(F)(F)F)cc2)c2ccc(C(F)(F)F)cc2)CC1 (centres unmarked) [Compound 111]	100%	100%	–	–
[O-][N+]1(Cc2ccc(Oc3ncccn3)cc2)CCC(O)(C(c2ccc(OC(F)(F)F)cc2)c2ccc(OC(F)(F)F)cc2)CC1 (centres unmarked) [Compound 112, 4-{bis[4-(trifluoromethoxy)phenyl]methyl}-4-hydroxy-1-[(4-pyrimidin-2-yloxyphenyl)methyl]piperidin-1-oxide]	–	–	100%	100%
CCn1nnc(-c2ccc(C[N+]3([O-])CCC(O)(C(c4ccc(C(F)(F)F)cc4)c4ccc(C(F)(F)F)cc4)CC3)cc2)n1 (centres unmarked) [Compound 113]	100%	100%	–	–
CCn1nnc(-c2ccc(C[N+]3([O-])CCC(O)(C(c4ccc(OC(F)(F)F)cc4)c4ccc(OC(F)(F)F)cc4)CC3)cc2)n1 (centres unmarked) [Compound 114]	100%	100%	–	–
[O-][N+]1(Cc2ccc(Oc3ncccn3)cc2)CCC(O)(C(c2ccc(Cl)c(F)c2)c2ccc(Cl)c(F)c2)CC1 (centres unmarked) [Compound 115]	50%	100%	–	–
[O-][N+]1(Cc2ccc(-c3ncccn3)cc2)CCC(O)(C(c2ccc(OC(F)(F)F)cc2)c2ccc(OC(F)(F)F)cc2)CC1 (centres unmarked) [Compound 116]	100%	100%	–	–
[O-][N+]1(Cc2ccc(Oc3ccccn3)cc2)CCC(O)(C(c2ccc(OC(F)(F)F)cc2)c2ccc(OC(F)(F)F)cc2)CC1 (centres unmarked) [Compound 117, 4-{bis[4-(trifluoromethoxy)phenyl]methyl}-4-hydroxy-1-[(4-(2-pyridyloxy)phenyl)methyl]piperidin-1-oxide]	–	–	100%	100%
CCON=Cc1ccc(C[N+]2([O-])CCC(O)(C(c3ccc(OC(F)(F)F)cc3)c3ccc(OC(F)(F)F)cc3)CC2)cc1 (centres unmarked) [Compound 118]	100%	100%	–	–
CC(C)OC(=O)Nc1ccc(C[N+]2([O-])CCC(O)(C(c3ccc(OC(F)(F)F)cc3)c3ccc(OC(F)(F)F)cc3)CC2)cc1 (centres unmarked) [Compound 119]	100%	100%	–	–
[O-][N+]1(Cc2ccc(Oc3ncccn3)cc2)CCC(O)(C(c2ccc(C(F)(F)F)cc2)c2ccc(C(F)(F)F)cc2)CC1 (centres unmarked) [Compound 120]	100%	100%	–	–
CCCOc1ccc(C[N+]2([O-])CCC(O)(C(O)(c3ccc(C(F)(F)F)cc3)c3ccc(C(F)(F)F)cc3)CC2)cc1 (centres unmarked) [Compound 121]	100%	100%	–	–
Cn1nnc(-c2ccc(C[N+]3([O-])CCC(O)(C(O)(c4ccc(OC(F)(F)F)cc4)c4ccc(OC(F)(F)F)cc4)CC3)cc2)n1 (centres unmarked) [Compound 122]	100%	100%	–	–

SMILES	Percent Mortality	Percent Growth Inhibition	mortality	pest or weed control at 0.25 mmol/well
CCCOc1ccc(C[N+]2([O-])CCC(O)(C(O)(c3ccc(OC(F)(F)F)cc3)c3ccc(OC(F)(F)F)cc3)CC2)cc1 (centres unmarked) [Compound 123]	100%	100%	–	–
FC(F)(F)Oc1ccc(C(c2ccc(OC(F)(F)F)cc2)C2(F)CCN(Cc3ccc(Oc4ncccn4)cc3)CC2)cc1 [Compound 192, 4-{bis[4-(trifluoromethoxy)phenyl]methyl}-4-fluoro-1-[(4-pyrimidin-2-yloxyphenyl)methyl]piperidine]	–	–	100%	100%
FC(F)(F)c1ccc(C(c2ccc(C(F)(F)F)cc2)C2(F)CCN(Cc3ccc(Oc4ccccn4)cc3)CC2)cc1 [Compound 193]	100%	100%	–	–
FC(F)(F)c1ccc(C(c2ccc(C(F)(F)F)cc2)C2(F)CCN(Cc3ccc(Oc4ncccn4)cc3)CC2)cc1 [Compound 194]	100%	100%	–	–
CCOC(=O)C1(C(Cl)(c2ccc(C(F)(F)F)cc2)c2ccc(C(F)(F)F)cc2)CCN(Cc2ccc(Oc3ccccn3)cc2)CC1 [Compound 195, ethyl 4-{bis[4-(trifluoromethyl)phenyl]chloromethyl}-1-[(4-(2-pyridyloxy)phenyl)methyl]piperidine-4-carboxylate]	–	–	100%	100%
Cc1ccc(Oc2ccc(CN3CCC(O)(C(c4ccc(OC(F)(F)F)cc4)c4ccc(OC(F)(F)F)cc4)CC3)cc2)nn1 [Compound 255]	100%	100%	–	–
O=Cc1ccc(C(c2ccc(OC(F)(F)F)cc2)C2(O)CCN(Cc3ccc(Oc4ccccn4)cc3)CC2)cc1 (centres unmarked) [Compound 256]	17%	100%	–	–
CC(C)(C)c1ccc(C(c2ccc(OC(F)(F)F)cc2)C2(O)CCN(Cc3ccc(Oc4ccccn4)cc3)CC2)cc1 (centres unmarked) [Compound 257]	100%	100%	–	–
COCCOCCON=Cc1ccc(CN2CCC(O)(C(c3ccc(OC(F)(F)F)cc3)c3ccc(OC(F)(F)F)cc3)CC2)cc1 [Compound 258]	100%	100%	–	–
CCOCON=Cc1ccc(CN2CCC(O)(C(c3ccc(OC(F)(F)F)cc3)c3ccc(OC(F)(F)F)cc3)CC2)cc1 [Compound 259]	100%	100%	–	–
COc1ccc(C(c2ccc(OC(F)(F)F)cc2)C2(O)CCN(Cc3ccc(Oc4ccccn4)cc3)CC2)cc1 (centres unmarked) [Compound 260]	100%	100%	–	–
OC1(C(c2ccc(Br)cc2)c2ccc(OC(F)(F)F)cc2)CCN(Cc2ccc(Oc3ccccn3)cc2)CC1 (centres unmarked) [Compound 261]	100%	100%	–	–
Cc1ccc(C(c2ccc(OC(F)(F)F)cc2)C2(O)CCN(Cc3ccc(Oc4ccccn4)cc3)CC2)cc1 (centres unmarked) [Compound 262]	100%	100%	–	–
OC1(C(c2ccc(OC(F)(F)F)cc2)c2ccc(OC(F)(F)F)cc2)CCN(Cc2ccc(C3OCCO3)cc2)CC1 [Compound 263]	100%	100%	–	–
OC1(C(c2ccc(C(F)(F)F)cc2)c2ccc(C(F)(F)F)cc2)CCN(Cc2ccc(C3OCCO3)cc2)CC1 [Compound 264]	33%	100%	–	–
